Data: patent US10166271B2, “Methods for promoting hair growth” (THE REGENTS OF THE UNIVERSITY OF CALIFORNIA, priority 2006, dated 2019)

Tests used:
[1] = tested on: CRF-OE mice; type: in vivo; settings: for Treated mice that died / did not survive / Hair growth: adult female CRF-OE mice; for Treated mice that died / did not survive: groups of five, minoxidil: a few days after the first injection, NBI 27914: within four weeks following the final injection; for Hair growth: 2 and 4 weeks (minoxidil) or four weeks (NBI 27914, surviving mouse) after the final injection
Excerpt: The NBI 27914 administration regimen was as previously described by Martinez et al. (J. Pharmacol. Exp. Ther., 301:611-617, 2002).

[2] = tested on: young CRF-OE mice; settings: young CRF-OE mice; over a two-month period
Description: Each subcutaneous injection is given in a single puncture located along or about the midline of the back. Age-matched CRF-OE mice similarly injected with 0.1 ml vehicle alone are used as negative controls. Astressin B fragments are as described in Example 8. Alternatively, topical astressin B can be applied to the mouse's back, for example 0.05 mg, 0.5 mg, 5 mg, 50 mg, or 500 mg of an astressin B fragment once daily for at least five consecutive days
Hair growth (or hair loss) is assessed using the hair growth scale described in Example 1. The general conditions of treated and control mice, such as weight, back skin thickness, hair luster, skin wounds and indurations, are noted.

[3] = tested on: male patients between 18 and 41 years of age; post-menopausal women; settings: cited from earlier work
[4] = tested on: male and female androgenetic patients; settings: cited from earlier work
[5] = oral 1 mg/day for 2 years, male patients 18-41 years

Row | Structure (SMILES) | Treated mice that died / did not survive [1] | Hair growth [1] | Loss of hair compared with astressin B-treated mice [2] | Side effects ([3]; human, in vivo) | Cases in which further hair loss was prevented [3, 5] | Cases with visible hair growth [3, 5] | Efficacy of similar treatment regimen ([3]; post-menopausal women) | Treated mice with induced patches of pigmentation ([1]; sc 1% in 0.1 ml once per day x 10 days, by two weeks after the final injection, still-living mice) | Side effects ([4]; human, in vivo) | Patients with fine hair growth (fraction) ([4]; two percent topical) | Patients with no hair growth (fraction) ([4]; two percent topical) | Patients with visible hair growth (fraction) ([4]; two percent topical)
1 | CCCN(CC1CC1)c1nc(C)nc(Nc2c(Cl)cc(Cl)cc2Cl)c1Cl [NBI 27914] | 4 out of 5 | small areas of patchy hair growth | substantially more loss of hair | – | – | – | – | – | – | – | – | –
2 | CC(C)(C)NC(=O)[C@H]1CC[C@H]2[C@@H]3CC[C@H]4NC(=O)C=C[C@]4(C)[C@H]3CC[C@]12C [finasteride] | – | – | – | lack of libido, lack of potency, and mild reduction in semen | 83% | 66% | ineffective | – | – | – | – | –
3 | Nc1cc(N2CCCCC2)nc(N)[n+]1[O-] [minoxidil] | one treated mouse died | Moderate hair growth in the pigmented patches | substantially more loss of hair | – | – | – | – | 3 of the 4 | scalp irritation and increased facial hair | approximately ⅓ | approximately ⅓ | approximately ⅓
